Laboratory results reported in patent EP2326328B1, “USE OF DIHYDRALAZINE FOR THE TREATMENT OF DISEASES RELATED TO ELEVATED SEMICARBAZIDE SENSITIVE AMINE-OXIDASE (SSAO) ACTIVITY” (Semmelweis Egyetem, priority 2008, dated 2010).

Legend:
macular edema = macular edema of type 2 diabetic patients, retinal thickness by optical coherency tomography (OCT); assay type: in vivo, human; design: OCT CPT (center point thickness): unit not given beside the values; settings: for OCT CPT (center point thickness) / OCT CST (central subfield thickness): oral 14.5 mg dihydralazine sulphate twice daily
Experimental: The effect of orally administered low dose dihydralazine on macular edema and serum SSAO activity was studied in type 2 diabetic patients in an early stage of macular edema formation.
(§1) After giving their informed consent, patients participating in the study were treated for 56 days taking ½ tablet twice daily of a pharmaceutical composition containing 28.9 mg dihydralazine sulphate (i.e. the ½ tablet contained 14.5 mg dihydralazine sulphate).
(§2) To measure the efficacy and monitor the safety of the treatment, the following examinations were carried out before starting the treatment and at the 1., 7., 14., 28. and 56. day of the treatment: • 1. ocular examinations: visual acuity (ETDRS chart), slit-lamp examination, measurement of intraocular pressure with applanation tonometry, fundus biomicroscopy with pupil dilation, digital fundus photography. The grade of macular edema was determined via measuring retinal thickness with optical coherency tomography (OCT). • 2. internal medicine examinations: anamnesis, physical examinations, blood pressure, pulse, urine examination. • 3. laboratory examinations: blood glucose, HbA1c, liver function, kidney function, microalbuminuria, metabolic panel of the blood , lipids, CRP.
(§3) In the table the following abbreviations were used: • BMI: body mass index - weight (kg) / height (m^2) • RRsyst: blood pressure (systolic) (Hgmm) • RRdiast: blood pressure (diastolic) (Hgmm) • OCT CST (central subfield thickness): the average thickness of the central 1-mm area of the macula • OCT CPT (center point thickness): the thickness of the center point of the retina; normally that is the thinnest point of the macula Table 4.

[1] = blood pressure and pulse of treated type 2 diabetic patients; assay type: in vivo, human; settings: oral 14.5 mg dihydralazine sulphate twice daily; for RRsyst: blood pressure (systolic): before treatment 153
Experimental: as §1, §2, §3

human serum SSAO = molecular target: T1, human serum SSAO (Homo sapiens, UniProt Q16853); assay: radiochemical determination of SSAO activity in human serum (14C-benzylamine substrate); assay type: biochemical; settings: 20 min pre-incubation at room temperature, 37°C 40 min
T1 construct: from tissue; host or cells: human serum
T1 sequence (Q16853 29-763 limits assumed): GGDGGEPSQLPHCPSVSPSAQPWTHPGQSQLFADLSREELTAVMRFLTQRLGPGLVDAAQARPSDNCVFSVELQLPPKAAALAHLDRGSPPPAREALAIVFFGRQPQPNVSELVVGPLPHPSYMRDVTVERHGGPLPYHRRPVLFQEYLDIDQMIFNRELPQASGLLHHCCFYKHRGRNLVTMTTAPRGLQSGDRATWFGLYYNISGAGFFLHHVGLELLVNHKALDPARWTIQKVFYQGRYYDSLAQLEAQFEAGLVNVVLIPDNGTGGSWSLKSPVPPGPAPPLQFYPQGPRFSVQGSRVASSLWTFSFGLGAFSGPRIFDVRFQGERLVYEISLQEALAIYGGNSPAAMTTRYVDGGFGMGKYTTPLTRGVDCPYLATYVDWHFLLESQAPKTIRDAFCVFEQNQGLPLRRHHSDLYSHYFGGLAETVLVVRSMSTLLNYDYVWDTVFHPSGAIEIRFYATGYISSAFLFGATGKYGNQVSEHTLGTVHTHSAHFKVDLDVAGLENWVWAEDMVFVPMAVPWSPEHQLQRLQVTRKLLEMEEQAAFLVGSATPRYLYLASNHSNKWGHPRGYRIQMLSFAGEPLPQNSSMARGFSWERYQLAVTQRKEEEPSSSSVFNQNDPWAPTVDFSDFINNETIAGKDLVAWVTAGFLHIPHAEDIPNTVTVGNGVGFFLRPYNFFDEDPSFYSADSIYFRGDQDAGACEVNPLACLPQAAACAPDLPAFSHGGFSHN
Experimental: In the experiment human serum was used in the following way: blood samples were collected without anticoagulant, then stored at 4°C for 15 minutes and centrifuged (4°C, 2500 g/10 min). The supernatant was stored at -80°C until the measurement of the enzyme activity.
A radiochemical procedure (Yu P.H., Zuo D.M., Biochem. Pharmacol., 1992, 43, 307-312) was adapted for determining SSAO activities in the human serum. It is based on the determination of the quantity of ^14C-benzaldehyde formed by the enzyme reaction of ^14C-benzylamine.
The preparations containing the serum and the dihydralazine enzyme inhibitor were pre-incubated at room temperature for 20 min. The enzyme reaction was started with ^14C-benzylamine substrate (- 200000 dpm/tube). […] The enzyme activity was determined by liquid scintillation counting (600 µl supernatant + 5ml Aquasafe), using the formula below: ([dpm(sample)-dpm0ʹ] x 1.6 x 10 x 1.5)/(measured substrate activity dpm x mg protein) [formula] standing for: 1.6: extraction volume; 10: molar activity; 1.5: correction factor for the incubation time; dpm: disintegrations per minute (unit of radioactivity)
The inhibition was calculated in the % inhibition compared to the control ('control' sample not containing the inhibitor compound) after correction with the background ('blank' sample). […]

[2] = blood pressure of treated rats, determined in an invasive way; assay type: in vivo; settings: sc 0.1 or 0.01 M solution (0.1 ml/100 g) once daily for 1-5 days, compared to the control group
Experimental: The blood pressure of the animals was determined in an invasive way. […]

In the case of `NNc1nnc(NN)c2ccccc12` [dihydralazine], the “OCT CPT (center point thickness)” value (macular edema; 1. patient, 14. day, before treatment 272) is reported as 215, the “OCT CST (central subfield thickness)” value (macular edema; 1. patient, 14. day, before treatment 298) is reported as 266 and the “OCT CPT (center point thickness)” value (macular edema; 1. patient, 28. day, before treatment 272) is reported as 219. For the same compound, the “OCT CST (central subfield thickness)” value (macular edema; 1. patient, 28. day, before treatment 298) was 273, the “OCT CPT (center point thickness)” value (macular edema; 1. patient, 56. day, before treatment 272) was 209 and the “OCT CST (central subfield thickness)” value (macular edema; 1. patient, 56. day, before treatment 298) was 265. The “OCT CPT (center point thickness)” value (macular edema; 2. patient, 14. day, before treatment 257) was 319, the “OCT CST (central subfield thickness)” value (macular edema; 2. patient, 14. day, before treatment 302) was 323 and the “OCT CPT (center point thickness)” value (macular edema; 2. patient, 28. day, before treatment 257) was 239. The “OCT CST (central subfield thickness)” value (macular edema; 2. patient, 28. day, before treatment 302) was 286, the “OCT CPT (center point thickness)” value (macular edema; 2. patient, 56. day, before treatment 257) was 201 and the “OCT CST (central subfield thickness)” value (macular edema; 2. patient, 56. day, before treatment 302) was 252. The macular edema (macular edema; 2 treated type 2 diabetic patients, oral 14.5 mg dihydralazine sulphate twice daily for 56 days) was “significant decrease of the macular edema was observed in the fovea”, the pulse ([1]; 1. patient, 14. day, before treatment 60) was 69 beats/min and the “RRdiast: blood pressure (diastolic)” value ([1]; 1. patient, 14. day, before treatment 63) was 70 Hgmm. The “RRsyst: blood pressure (systolic)” value ([1]; 1. patient, 14. day) was 154 Hgmm, the pulse ([1]; 1. patient, 28. day, before treatment 60) was 69 beats/min and the “RRdiast: blood pressure (diastolic)” value ([1]; 1. patient, 28. day, before treatment 63) was 68 Hgmm. The “RRsyst: blood pressure (systolic)” value ([1]; 1. patient, 28. day) was 152 Hgmm, the pulse ([1]; 1. patient, 56. day, before treatment 60) was 60 beats/min and the “RRdiast: blood pressure (diastolic)” value ([1]; 1. patient, 56. day, before treatment 63) was 67 Hgmm. For the same compound, the “RRsyst: blood pressure (systolic)” value ([1]; 1. patient, 56. day) was 161 Hgmm, the “RRdiast: blood pressure (diastolic)” value ([1]; 2. patient, 14. day, before treatment 76) was 65 Hgmm and the pulse ([1]; 2. patient, 14. day, before treatment 79) was 89 beats/min. For the same compound, the “RRsyst: blood pressure (systolic)” value ([1]; 2. patient, 14. day) was 150 Hgmm, the “RRdiast: blood pressure (diastolic)” value ([1]; 2. patient, 28. day, before treatment 76) was 74 Hgmm and the pulse ([1]; 2. patient, 28. day, before treatment 79) was 93 beats/min. For the same compound, the “RRsyst: blood pressure (systolic)” value ([1]; 2. patient, 28. day) was 158 Hgmm, the “RRdiast: blood pressure (diastolic)” value ([1]; 2. patient, 56. day, before treatment 76) was 64 Hgmm and the pulse ([1]; 2. patient, 56. day, before treatment 79) was 77 beats/min. For the same compound, the “RRsyst: blood pressure (systolic)” value ([1]; 2. patient, 56. day) was 126 Hgmm, the blood pressure ([1]; type 2 diabetic patients) was “did not cause significant change of blood pressure” and the IC20 (human serum SSAO) was 500 nM. The “blood pressure of the animals” value [2] was “did not cause lowering of the blood pressure”.
